Reference: PMC5344682, “Tuned SMC Arms Drive Chromosomal Loading of Prokaryotic Condensin” (Molecular Cell, 2017)

Legend:
Assay in all cases: PK/LDH coupled ATPase assay, NADH absorbance, Hill fit
Format in all cases: biochemical
[1] = molecular target: T1, Smc (Bs Smc) (Bacillus subtilis, UniProt P51834, DEL436-486/DEL685-735); details: 50 mM HEPES-KOH pH 7.5, 50 mM NaCl, 2 mM MgCl2, 25 C, 0.3 uM protein, ATP varied; Mini-Smc(1-435, 487-684, 736-1186), construct taken from plasmid pSG2915
T1 construct: full length 1186 residues, untagged, E. coli BL21-Gold(DE3), homodimer; plasmid pSG1497 pET-22b Smc; no ScpAB or DNA
T1 sequence (P51834 other isoform, or with tags, fused parts or gaps DEL436-486/DEL685-735): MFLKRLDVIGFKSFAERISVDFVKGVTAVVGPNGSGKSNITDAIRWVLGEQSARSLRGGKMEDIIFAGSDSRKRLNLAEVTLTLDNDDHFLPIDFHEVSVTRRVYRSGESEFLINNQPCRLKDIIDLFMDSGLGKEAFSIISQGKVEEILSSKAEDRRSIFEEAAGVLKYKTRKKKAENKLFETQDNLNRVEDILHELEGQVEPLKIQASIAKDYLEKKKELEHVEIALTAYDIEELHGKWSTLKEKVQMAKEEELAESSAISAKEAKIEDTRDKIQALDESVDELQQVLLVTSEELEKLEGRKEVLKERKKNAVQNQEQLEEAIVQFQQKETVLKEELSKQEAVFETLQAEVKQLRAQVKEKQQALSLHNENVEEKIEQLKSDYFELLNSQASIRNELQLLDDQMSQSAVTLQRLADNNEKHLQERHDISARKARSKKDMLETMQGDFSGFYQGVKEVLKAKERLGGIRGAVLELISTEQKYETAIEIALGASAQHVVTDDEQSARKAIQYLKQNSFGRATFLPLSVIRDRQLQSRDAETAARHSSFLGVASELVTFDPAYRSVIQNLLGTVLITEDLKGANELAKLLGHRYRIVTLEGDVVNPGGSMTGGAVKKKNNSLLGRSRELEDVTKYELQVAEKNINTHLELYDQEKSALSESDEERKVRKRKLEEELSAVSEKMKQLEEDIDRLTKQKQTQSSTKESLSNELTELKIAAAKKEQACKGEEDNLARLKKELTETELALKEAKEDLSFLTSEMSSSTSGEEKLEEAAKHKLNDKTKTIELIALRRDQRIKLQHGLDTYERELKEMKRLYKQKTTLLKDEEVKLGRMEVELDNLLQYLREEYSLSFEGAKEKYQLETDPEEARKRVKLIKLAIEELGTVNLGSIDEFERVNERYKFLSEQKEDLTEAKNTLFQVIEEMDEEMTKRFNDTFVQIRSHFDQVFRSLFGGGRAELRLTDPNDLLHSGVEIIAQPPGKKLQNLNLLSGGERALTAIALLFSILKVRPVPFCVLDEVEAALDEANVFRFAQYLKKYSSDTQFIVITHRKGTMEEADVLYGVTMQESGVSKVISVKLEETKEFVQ

[2] = molecular target: T2, Smc (Bs Smc) (Bacillus subtilis, UniProt P51834, DEL396-486/DEL685-775); details: 50 mM HEPES-KOH pH 7.5, 50 mM NaCl, 2 mM MgCl2, 25 C, 0.3 uM protein, ATP varied; Mini-Smc(1-395, 487-684, 776-1186), construct taken from plasmid pSG2917
T2 construct: full length 1186 residues, untagged, E. coli BL21-Gold(DE3), homodimer; plasmid pSG1497 pET-22b Smc; no ScpAB or DNA

[3] = molecular target: T3, Smc (Bs Smc) (Bacillus subtilis, UniProt P51834, DEL400-486/DEL685-771); details: 50 mM HEPES-KOH pH 7.5, 50 mM NaCl, 2 mM MgCl2, 25 C, 0.3 uM protein, ATP varied; Mini-Smc(1-399, 487-684, 772-1186), construct taken from plasmid pSG2916
T3 construct: full length 1186 residues, untagged, E. coli BL21-Gold(DE3), homodimer; plasmid pSG1497 pET-22b Smc; no ScpAB or DNA
T3 sequence (P51834 other isoform, or with tags, fused parts or gaps DEL400-486/DEL685-771): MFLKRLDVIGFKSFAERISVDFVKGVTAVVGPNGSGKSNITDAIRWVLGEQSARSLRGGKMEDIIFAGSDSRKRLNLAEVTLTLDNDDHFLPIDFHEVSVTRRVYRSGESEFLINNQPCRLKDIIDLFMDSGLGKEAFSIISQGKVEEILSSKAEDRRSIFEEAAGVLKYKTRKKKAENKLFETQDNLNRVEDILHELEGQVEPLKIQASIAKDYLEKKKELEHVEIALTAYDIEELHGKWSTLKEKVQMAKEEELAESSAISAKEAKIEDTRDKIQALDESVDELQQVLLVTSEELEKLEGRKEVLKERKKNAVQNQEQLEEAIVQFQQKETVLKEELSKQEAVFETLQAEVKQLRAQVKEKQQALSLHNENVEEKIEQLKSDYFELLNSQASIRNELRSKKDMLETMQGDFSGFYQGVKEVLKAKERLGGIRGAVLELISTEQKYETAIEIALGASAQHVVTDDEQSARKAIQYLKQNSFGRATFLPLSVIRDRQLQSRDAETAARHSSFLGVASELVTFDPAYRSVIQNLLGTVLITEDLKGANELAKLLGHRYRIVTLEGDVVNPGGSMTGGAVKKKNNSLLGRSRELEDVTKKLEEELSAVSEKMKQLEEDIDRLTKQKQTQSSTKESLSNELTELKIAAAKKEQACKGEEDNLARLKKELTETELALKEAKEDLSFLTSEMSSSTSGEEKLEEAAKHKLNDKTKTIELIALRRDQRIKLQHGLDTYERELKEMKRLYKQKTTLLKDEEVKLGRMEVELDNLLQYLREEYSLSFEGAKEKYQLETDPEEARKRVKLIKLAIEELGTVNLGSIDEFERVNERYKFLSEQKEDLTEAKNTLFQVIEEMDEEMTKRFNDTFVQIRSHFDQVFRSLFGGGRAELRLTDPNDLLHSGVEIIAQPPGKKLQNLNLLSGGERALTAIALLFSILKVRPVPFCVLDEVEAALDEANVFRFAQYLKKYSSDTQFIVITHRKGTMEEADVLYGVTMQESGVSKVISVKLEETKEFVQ

[4] = molecular target: T4, Smc (Bs Smc) (Bacillus subtilis, UniProt P51834, DEL439-486/DEL685-732); details: 50 mM HEPES-KOH pH 7.5, 50 mM NaCl, 2 mM MgCl2, 25 C, 0.3 uM protein, ATP varied; Mini-Smc(1-438, 487-684, 733-1186), construct taken from plasmid pSG2914
T4 construct: full length 1186 residues, untagged, E. coli BL21-Gold(DE3), homodimer; plasmid pSG1497 pET-22b Smc; no ScpAB or DNA
T4 sequence (P51834 other isoform, or with tags, fused parts or gaps DEL439-486/DEL685-732): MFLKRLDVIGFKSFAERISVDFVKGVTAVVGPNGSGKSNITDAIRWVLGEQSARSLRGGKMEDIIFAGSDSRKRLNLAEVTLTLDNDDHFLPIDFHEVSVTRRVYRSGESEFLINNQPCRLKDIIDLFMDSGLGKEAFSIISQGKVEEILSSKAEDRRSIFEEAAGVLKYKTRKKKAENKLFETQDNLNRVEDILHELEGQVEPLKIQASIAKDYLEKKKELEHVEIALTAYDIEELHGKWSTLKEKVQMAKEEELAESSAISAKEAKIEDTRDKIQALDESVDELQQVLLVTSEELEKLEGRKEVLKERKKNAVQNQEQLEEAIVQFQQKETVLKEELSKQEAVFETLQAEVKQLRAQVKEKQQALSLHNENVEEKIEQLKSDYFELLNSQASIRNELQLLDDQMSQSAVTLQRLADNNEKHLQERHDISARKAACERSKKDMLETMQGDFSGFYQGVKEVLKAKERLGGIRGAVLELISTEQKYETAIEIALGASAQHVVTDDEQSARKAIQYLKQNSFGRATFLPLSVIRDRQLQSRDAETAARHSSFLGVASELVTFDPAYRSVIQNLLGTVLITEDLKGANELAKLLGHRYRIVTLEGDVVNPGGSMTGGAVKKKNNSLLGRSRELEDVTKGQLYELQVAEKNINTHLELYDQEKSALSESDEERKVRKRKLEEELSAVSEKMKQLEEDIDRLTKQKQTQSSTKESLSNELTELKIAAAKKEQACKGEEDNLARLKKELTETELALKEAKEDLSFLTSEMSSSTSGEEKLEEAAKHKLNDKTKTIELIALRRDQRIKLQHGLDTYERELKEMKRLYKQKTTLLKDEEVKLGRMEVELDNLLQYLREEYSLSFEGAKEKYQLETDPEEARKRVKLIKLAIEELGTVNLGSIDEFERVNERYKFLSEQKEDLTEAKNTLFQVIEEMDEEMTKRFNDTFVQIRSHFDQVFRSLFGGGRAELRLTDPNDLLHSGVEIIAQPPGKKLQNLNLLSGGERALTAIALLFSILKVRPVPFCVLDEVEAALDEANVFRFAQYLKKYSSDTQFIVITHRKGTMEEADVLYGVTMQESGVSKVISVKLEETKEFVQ

[5] = molecular target: T5, Smc (Bs Smc) (Bacillus subtilis, UniProt P51834); details: 50 mM HEPES-KOH pH 7.5, 50 mM NaCl, 2 mM MgCl2, 25 C, 0.3 uM protein, ATP varied; peptide insertion, plasmid pSG2966; matching strain printed as smc(1-479)-SGPGGGGGRQYQA-smc(480-1186)
T5 construct: full length 1186 residues, untagged, E. coli BL21-Gold(DE3), homodimer; plasmid pSG1497 pET-22b Smc; no ScpAB or DNA
T5 sequence (P51834 whole entry): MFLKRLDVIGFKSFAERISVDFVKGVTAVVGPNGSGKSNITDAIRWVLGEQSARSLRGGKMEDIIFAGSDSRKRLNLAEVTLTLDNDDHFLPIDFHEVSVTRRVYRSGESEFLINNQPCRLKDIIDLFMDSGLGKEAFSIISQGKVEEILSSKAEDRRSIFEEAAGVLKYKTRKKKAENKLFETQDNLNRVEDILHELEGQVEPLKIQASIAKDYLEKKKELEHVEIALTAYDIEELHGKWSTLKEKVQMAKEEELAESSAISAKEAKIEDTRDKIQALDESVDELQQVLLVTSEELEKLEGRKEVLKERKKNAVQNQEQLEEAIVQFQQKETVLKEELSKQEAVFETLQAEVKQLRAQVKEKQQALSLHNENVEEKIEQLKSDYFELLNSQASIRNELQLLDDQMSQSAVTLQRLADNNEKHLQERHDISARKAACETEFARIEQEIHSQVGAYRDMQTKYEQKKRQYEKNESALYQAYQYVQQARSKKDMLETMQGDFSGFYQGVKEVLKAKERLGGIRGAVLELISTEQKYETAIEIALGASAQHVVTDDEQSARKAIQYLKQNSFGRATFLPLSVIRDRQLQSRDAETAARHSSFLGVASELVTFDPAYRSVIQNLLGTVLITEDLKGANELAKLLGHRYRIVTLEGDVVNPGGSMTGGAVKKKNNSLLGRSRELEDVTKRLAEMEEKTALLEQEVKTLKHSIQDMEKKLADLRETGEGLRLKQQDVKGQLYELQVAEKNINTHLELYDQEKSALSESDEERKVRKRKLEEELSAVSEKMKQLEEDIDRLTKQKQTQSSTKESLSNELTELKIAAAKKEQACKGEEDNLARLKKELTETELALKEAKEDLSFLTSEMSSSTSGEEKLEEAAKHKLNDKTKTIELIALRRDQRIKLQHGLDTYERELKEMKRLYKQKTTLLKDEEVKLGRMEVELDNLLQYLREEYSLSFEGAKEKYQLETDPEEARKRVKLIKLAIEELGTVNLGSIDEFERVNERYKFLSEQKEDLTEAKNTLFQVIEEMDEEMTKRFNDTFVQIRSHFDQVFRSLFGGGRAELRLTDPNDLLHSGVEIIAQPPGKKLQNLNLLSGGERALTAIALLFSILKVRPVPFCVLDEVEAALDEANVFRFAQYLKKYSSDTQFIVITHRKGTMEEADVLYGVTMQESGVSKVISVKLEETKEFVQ

[6] = molecular target: T5, Smc (Bs Smc); details: 50 mM HEPES-KOH pH 7.5, 50 mM NaCl, 2 mM MgCl2, 25 C, 0.3 uM protein, ATP varied; peptide insertion, plasmid pSG2965; matching strain printed as smc(1-394)-SGPGGGGGRQQAS-smc(395-1186)

In the case of `Nc1ncnc2c1ncn2[C@@H]1O[C@H](COP(=O)(O)OP(=O)(O)OP(=O)(O)O)[C@@H](O)[C@H]1O` [ATP], the K0.5 [1] is reported as “We then purified Mini-Smc proteins to measure their ability to hydrolyze ATP in vitro”, the K0.5 [2] is reported as “We then purified Mini-Smc proteins to measure their ability to hydrolyze ATP in vitro” and the K0.5 [3] is reported as “We then purified Mini-Smc proteins to measure their ability to hydrolyze ATP in vitro”. The K0.5 [4] was “We then purified Mini-Smc proteins to measure their ability to hydrolyze ATP in vitro”, the K0.5 [5] was “Smc proteins with peptide insertions are functional ATPases” and the K0.5 [6] was “Smc proteins with peptide insertions are functional ATPases”.
